Drawing on ChEMBL document CHEMBL6177932 (J Med Chem, 2024), this text covers Activity and inhibition for 1 molecule.

Active and inactive are the calls of the source. The calls are words filed in the database; no cut-off is given here.

Data set [1] has as its system Mus musculus. The data set can be described thus: Immunomodulatory activity in mouse 4T1 cells implanted BALB/c mouse assessed as reduction in Cxcl10 gene expression at 1.5 to 5 mg/kg, ip administered daily for 18 days by RT-qPCR analysis. Format: functional, organism-based. The conditions noted are these: dose 1.5-5 mg/kg, time 18.0 day.
Data set [2] addresses Histone deacetylase 9 (Homo sapiens) (UniProt Q9UKV0). In words: Inhibition of human HDAC9 at 100 uM using Boc-Lys(trifluoroacetyl)-AMC as substrate by fluorogenic assay.
For data set [3], the system named is B16-F10. In words: Antitumor activity against mouse B16-F10 cells implanted in C57BL/6 mouse assessed as reduction in tumor burden at 5 mg/kg, ip administered every second day for 18 days. The settings on record: time 18.0 day. Format: functional, organism-based.
Data set [4] concerns the target T1, Protein deacetylase HDAC6 (Mus musculus) (UniProt Q9Z2V5).
T1 sequence (whole entry): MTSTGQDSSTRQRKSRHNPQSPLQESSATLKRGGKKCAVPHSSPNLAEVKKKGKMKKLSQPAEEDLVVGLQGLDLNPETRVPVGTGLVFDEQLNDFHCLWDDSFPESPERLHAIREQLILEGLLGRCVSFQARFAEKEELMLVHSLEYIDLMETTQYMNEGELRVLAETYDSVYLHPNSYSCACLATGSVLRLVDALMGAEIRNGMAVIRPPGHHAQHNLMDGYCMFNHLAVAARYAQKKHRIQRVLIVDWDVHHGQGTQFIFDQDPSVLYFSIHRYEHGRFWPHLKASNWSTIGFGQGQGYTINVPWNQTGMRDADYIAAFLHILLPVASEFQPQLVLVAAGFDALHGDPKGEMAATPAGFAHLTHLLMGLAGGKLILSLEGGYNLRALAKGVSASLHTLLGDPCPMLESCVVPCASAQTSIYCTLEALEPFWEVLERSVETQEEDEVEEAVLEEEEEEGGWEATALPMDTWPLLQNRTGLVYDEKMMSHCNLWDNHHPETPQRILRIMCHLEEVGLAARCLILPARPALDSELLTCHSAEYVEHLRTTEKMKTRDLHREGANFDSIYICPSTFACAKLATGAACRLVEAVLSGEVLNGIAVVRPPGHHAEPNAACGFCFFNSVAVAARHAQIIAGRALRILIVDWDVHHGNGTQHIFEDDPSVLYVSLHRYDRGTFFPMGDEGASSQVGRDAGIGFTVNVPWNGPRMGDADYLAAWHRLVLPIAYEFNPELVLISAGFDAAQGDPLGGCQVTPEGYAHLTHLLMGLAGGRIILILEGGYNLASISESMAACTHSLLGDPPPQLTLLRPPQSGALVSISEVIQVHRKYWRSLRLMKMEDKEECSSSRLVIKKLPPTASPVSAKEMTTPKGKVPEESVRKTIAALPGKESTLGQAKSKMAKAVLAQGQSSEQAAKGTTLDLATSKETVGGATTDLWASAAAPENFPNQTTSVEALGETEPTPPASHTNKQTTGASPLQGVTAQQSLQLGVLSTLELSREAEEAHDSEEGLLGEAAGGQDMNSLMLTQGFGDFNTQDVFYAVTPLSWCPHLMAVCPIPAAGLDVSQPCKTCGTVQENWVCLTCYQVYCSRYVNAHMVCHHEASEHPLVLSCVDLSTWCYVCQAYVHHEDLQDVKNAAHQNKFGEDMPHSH
In words: Inhibition of HDAC6 in mouse 4T1 cells assessed as induction of tubulin acetylation at 10 uM measured after 6 hrs by Western blot analysis. Format: cell-based. A general note: A western blot detects proteins with antibodies after separation by electrophoresis.

Data set [5] relates to Mus musculus. The data set can be described thus: Immunomodulatory activity in mouse 4T1 cells implanted BALB/c mouse assessed as reduction in Ccl5 gene expression at 1.5 to 5 mg/kg, ip administered daily for 18 days by RT-qPCR analysis. Format: functional, organism-based. The conditions noted are these: dose 1.5-5 mg/kg, time 18.0 day. In general terms: Quantitative PCR measures a nucleic acid by following its amplification.

Data set [6] relates to B16-F10. The data set can be described thus: Inhibition of class 1 HDAC in mouse B16-F10 cells assessed as induction of H3K9 acetylation at 10 uM measured after 6 hrs by Western blot analysis. Format: cell-based.
A short description of data set [7]: Toxicity in mouse B16-F10 cells implanted C57BL/6 mouse at 5 mg/kg, ip administered daily for 28 days. Format: organism-based. The settings on record: in vivo, time 28 day.
Data set [8] can be described thus: Toxicity in mouse B16-F10 cells implanted C57BL/6 mouse assessed as effect on body weight at 5 mg/kg, ip administered daily for 28 days. Format: organism-based. The settings on record: in vivo, time 28 day.
Data set [9] addresses T1, Protein deacetylase HDAC6 (Mus musculus). In words: Inhibition of HDAC6 in mouse B16-F10 cells assessed as induction of tubulin acetylation at 10 uM measured after 6 hrs by Western blot analysis. Format: cell-based.
Data set [10] relates to Mus musculus. In words: Immunomodulatory activity in mouse 4T1 cells implanted BALB/c mouse assessed as reduction in total macrophage infiltration into tumors at 1.5 to 5 mg/kg, ip administered daily for 18 days by F4/80 staining based immunofluorescence microscopy. Format: functional, organism-based. The settings on record: dose 1.5-5 mg/kg, time 18.0 day.
Data set [11] relates to Mus musculus. In words: Immunomodulatory activity in mouse 4T1 cells implanted BALB/c mouse assessed as reduction in M2 macrophage infiltration into tumors at 1.5 to 5 mg/kg, ip administered daily for 18 days by arginase 1 staining based immunofluorescence microscopy. The settings on record: dose 1.5-5 mg/kg, time 18.0 day. Format: functional, organism-based.
For the next data set, the system named is 4T1. In words: Inhibition of class 1 HDAC in mouse 4T1 cells assessed as induction of H3K27 acetylation at 10 uM measured after 6 hrs by Western blot analysis. In kind it is cell-based.
Data set [12] deals with T2, Vitamin D3 receptor (Mus musculus) (UniProt P48281).
T2 sequence (whole entry): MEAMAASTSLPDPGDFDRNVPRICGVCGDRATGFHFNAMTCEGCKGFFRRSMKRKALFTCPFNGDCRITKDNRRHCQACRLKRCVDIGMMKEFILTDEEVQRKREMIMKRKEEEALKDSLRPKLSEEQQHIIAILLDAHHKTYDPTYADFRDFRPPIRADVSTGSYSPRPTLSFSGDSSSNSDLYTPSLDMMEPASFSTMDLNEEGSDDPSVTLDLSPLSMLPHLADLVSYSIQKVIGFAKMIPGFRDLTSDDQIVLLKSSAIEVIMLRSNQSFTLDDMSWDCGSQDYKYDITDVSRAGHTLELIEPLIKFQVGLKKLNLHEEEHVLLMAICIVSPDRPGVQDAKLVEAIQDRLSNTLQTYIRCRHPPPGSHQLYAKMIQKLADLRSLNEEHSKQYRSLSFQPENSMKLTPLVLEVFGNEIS
In words: Agonist activity at VDR in mouse 4TO7 cells assessed as induction of Cyp24a1 gene at 0.1 to 10 uM measured after 24 hrs by RT-qPCR analysis. The settings on record: filed as agonist, dose 0.1-10 µM. Format: cell-based.

Chain of Histone deacetylase 9 (Homo sapiens) (Q9UKV0 whole entry): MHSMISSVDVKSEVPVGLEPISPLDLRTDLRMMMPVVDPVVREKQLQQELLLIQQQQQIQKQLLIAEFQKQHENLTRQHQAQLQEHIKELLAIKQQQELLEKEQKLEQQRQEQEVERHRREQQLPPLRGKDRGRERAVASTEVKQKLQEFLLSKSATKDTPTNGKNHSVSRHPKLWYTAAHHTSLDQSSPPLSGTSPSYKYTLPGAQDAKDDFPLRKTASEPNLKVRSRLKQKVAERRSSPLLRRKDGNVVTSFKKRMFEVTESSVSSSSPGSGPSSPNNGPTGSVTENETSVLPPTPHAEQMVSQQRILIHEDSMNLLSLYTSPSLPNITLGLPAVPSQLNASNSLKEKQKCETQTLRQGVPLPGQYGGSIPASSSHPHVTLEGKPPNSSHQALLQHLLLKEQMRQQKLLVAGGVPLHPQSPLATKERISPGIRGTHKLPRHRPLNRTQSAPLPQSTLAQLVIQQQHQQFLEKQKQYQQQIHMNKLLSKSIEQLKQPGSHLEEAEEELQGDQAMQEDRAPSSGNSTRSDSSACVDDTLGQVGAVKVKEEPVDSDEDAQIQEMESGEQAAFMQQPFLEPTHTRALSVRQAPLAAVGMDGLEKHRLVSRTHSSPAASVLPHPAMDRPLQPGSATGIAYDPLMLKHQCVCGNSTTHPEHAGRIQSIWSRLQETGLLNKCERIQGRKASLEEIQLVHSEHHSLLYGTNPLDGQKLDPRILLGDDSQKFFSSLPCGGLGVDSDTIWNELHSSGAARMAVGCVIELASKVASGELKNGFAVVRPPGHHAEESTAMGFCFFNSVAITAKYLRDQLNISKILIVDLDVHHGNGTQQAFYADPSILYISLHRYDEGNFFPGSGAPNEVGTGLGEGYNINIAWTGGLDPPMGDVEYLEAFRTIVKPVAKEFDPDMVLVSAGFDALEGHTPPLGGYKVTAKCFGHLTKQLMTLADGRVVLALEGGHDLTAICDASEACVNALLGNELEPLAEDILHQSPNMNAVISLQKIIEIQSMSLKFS

`CCC(CC)(c1ccc(C(=O)NCCCCC(=O)NO)cc1)c1ccc(OCC(O)C(C)(C)C)c(C)n1` (stereo not drawn): the outcome (with Mus musculus [1]; in the data set with B16-F10 [3]; in the data set with Mus musculus [5]; in [12]) was Active. Also, the inhibition result in data set [2] was “Not active; No Or Very Limited Inhibition Was Observed”; in data set [4], “Active; Most Efficacious Than Saha”; with B16-F10 [6], “Active; Acetylation Was Comparable Or Greater Than Saha”; in data set [9] it was “Active; Acetylation Was Comparable Or Greater Than Saha”. In addition, the Activity entry in [7] was “Non-toxic”; in [8] it was “Non-toxic”; in the data set on Mus musculus [10], “Active; Significantly Reduced Macrophage Infiltration Into Tumor”; with Mus musculus [11], “Active; Compound Was Most Efficacious At Reducing The M2 Macrophages”. Further, in the data set with 4T1, the inhibition entry is “Active”.
